The target of data set [1] is T1, T. brucei methionyl-tRNA synthetase (TbMetRS) (Trypanosoma brucei brucei, UniProt Q38C91).
T1 construct: hexa-histidine tag (3C protease site) (N, cleaved yes); made in house; host or cells: E. coli
T1 sequence (Q38C91 1-773): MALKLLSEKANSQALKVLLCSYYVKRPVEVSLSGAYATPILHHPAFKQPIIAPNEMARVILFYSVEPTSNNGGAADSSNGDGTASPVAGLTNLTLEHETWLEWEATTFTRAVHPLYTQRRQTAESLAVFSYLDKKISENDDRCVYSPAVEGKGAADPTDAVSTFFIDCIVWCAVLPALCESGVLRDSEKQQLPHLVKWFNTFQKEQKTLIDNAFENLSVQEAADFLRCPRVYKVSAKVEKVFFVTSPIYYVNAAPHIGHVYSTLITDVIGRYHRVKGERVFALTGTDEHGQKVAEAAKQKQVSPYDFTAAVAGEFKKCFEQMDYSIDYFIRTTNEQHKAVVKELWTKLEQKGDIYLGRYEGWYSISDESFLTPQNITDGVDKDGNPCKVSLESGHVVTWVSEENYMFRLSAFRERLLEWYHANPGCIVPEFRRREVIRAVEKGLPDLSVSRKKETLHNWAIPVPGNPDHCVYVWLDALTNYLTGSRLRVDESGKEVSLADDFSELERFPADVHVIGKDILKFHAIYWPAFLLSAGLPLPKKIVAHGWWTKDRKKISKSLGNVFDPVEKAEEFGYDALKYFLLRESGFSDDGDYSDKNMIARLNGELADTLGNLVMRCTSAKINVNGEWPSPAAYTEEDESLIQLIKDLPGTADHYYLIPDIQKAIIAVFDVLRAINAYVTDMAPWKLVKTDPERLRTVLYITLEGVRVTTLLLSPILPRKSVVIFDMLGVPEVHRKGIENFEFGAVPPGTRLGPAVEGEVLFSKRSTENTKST
Briefly: T. brucei methionyl-tRNA synthetase aminoacylation assay. The format is biochemical. The conditions noted are these: for pIC50: read-out: IC50 (aminoacylation activity of purified TbMetRS). The procedure: Compound IC50s were determined in the T. brucei methionyl-tRNA synthetase aminoacylation assay as previously described, [14] except 10 U/mL of pyrophosphatase was used per reaction.

The subject of data set [2] is T. brucei brucei (bloodstream form strain 427). Description: T. brucei growth inhibition assay. The format is cell-based. The conditions noted are these: Trypanosoma brucei, read-out: EC50 (growth of T. brucei in cell culture). An excerpt:
T. brucei brucei (bloodstream form strain 427 from K. Stuart, Seattle BioMed, Seattle, WA) were used for EC50 measurements as previously described, [14].

Data set [3] deals with T2, TbMetRS (Trypanosoma brucei brucei, UniProt Q38C91).
T2 construct: hexa-histidine tag (3C protease site) (N, cleaved yes); made in house; host or cells: E. coli
T2 sequence (Q38C91 1-773): T1 sequence (Q38C91 1-773)
Briefly: Thermal melt of TbMetRS with combinations of ligands (Chem 1433, ATP, AMPPCP, Mg2+). Type of data set: binding. The settings on record: for change in Tm of TbMetRS in the presence of the nucleotide and Mg2+: compared to TbMetRS only, no inhibitor. Here is the method: Thermal melt experiments on TbMetRS in the presence of different combinations of ligands were performed to determine the nature of the interactions between Chem 1433 and ATP when they are bound to TbMetRS. A similar analysis has been used to establish synergism between an inhibitor of human ProRS, halofuginone, and ATP [25]. An increase in Tm of the TbMetRS•1433 complex upon adding ATP may be an indication of synergism between Chem 1433 and ATP in binding. […] Instead, the addition of ATP-Mg^2+ or AMPPCP-Mg^2+ to the complex of the TbMetRS•Chem 1433 complex result in increase of Tm by an average of 1.6°C (n = 4, P<0.02) and 1.2°C (n = 4, P<0.05), respectively, compared to the Tm of TbMetRS•Chem 1433 alone (Figure S4).
(§1) Supplementary file pntd.0002775.s004.pdf: Figure S4 Thermal melting curves of Tb MetRS in the presence of different ligands. TbMetRS (0.1 mg/ml) is incubated in the presence of different ligands as indicated. The incubation temperature of the samples is increased from 20°C to 90°C and the fluorescence signal from the reporter dye (Sypro Orange) monitored. Melting temperatures (Tm) are calculated from the curves as the temperature where the first derivative value is maximal. The average Tm value of TbMetRS in the presence of Chem 1433, ATP and Mg^2+ (purple dash) is 1.6°C higher than the Tm of TbMetRS in the presence of Chem 1433 only (n = 4, P<0.02). The average Tm of TbMetRS in the presence of Chem 1433, AMPPCP and Mg^2+ (black dot) is 1.2°C higher than the Tm of TbMetRS in the presence of Chem 1433 only (n = 4, P<0.05). Changes in Tm of TbMetRS in the presence of ATP and Mg^2+ or AMPPCP and Mg^2+ compared to TbMetRS only are insignificant (P>0.3 and 0.8 respectively). (PDF) Click here for additional data file.
A typical thermal melting curves of TbMetRS in the presence of different ligands.
as §1, with “TbMetRS” for “Supplementary file pntd.0002775.s004.pdf: Figure S4 Thermal melting curves of Tb MetRS in the presence of different ligands. TbMetRS”, “Mg2+” for “Mg^2+”, “P < 0.02).” for “P<0.02).”, “P < 0.05).” for “P<0.05).”, “(P > 0.3” for “(P>0.3”, “respectively).” for “respectively). (PDF) Click here for additional data file.”
(1 picture or pasted object on this page, not shown here)

The test system of data set [4] is T. brucei infection. Also noted: method as in PMID 22720744. The conditions noted are these: administered orally; cited from earlier work.
Details of data set [5]: method as in PMID 22720744. The settings on record: cited from earlier work.
Data set [6] concerns MDR-1 MDCKII. The conditions noted are these: cited from earlier work.
Data set [7] has as its target T1, T. brucei methionyl-tRNA synthetase (TbMetRS). Also noted: method as in PMID 22720744. The settings on record: previously reported ABI, used for comparison; read-out: IC50 of the ABI Chem 1312 against TbMetRS; cited from earlier work.
The test system of data set [8] is Staphylococcus aureus MetRS. Also noted: method as in PMID 19015366. The settings on record: physiological ATP 2500 µM versus 25 µM; cited from earlier work.

pEC50, pIC50: −log10 of the molar value. Entries after “also recorded” stand apart in the source; their conditions may differ. Read-outs that look alike come from different tables or passages of the source. A value given as a limit tells only on which side of the number the result lay.

As to `C=CCOc1c(CC=C)cc(Cl)cc1CNCCCNC(=O)Nc1ccsc1` [Chem 1475], the pIC50 in data set [1] was 5.91. Also, the pEC50 in data set [2] is 5.93.
In the same order, the values of `Cc1sc2ccccc2c1CNCCCNC(=O)Nc1ccsc1` [Chem 1540] are 5.87 and 5.03.
In the same order, the values of `C=CCc1cc(Cl)cc(CNCCCNC(=O)Nc2ccsc2)c1O` [Chem 1472] are 6.70 and 5.28.
In the same order, the values of `COc1cc(Cl)cc(CNCCCNC(=O)Nc2ccsc2)c1` [Chem 1444] are 7.72 and 6.82.
In the case of `Nc1ncnc2c1ncn2[C@@H]1O[C@H](COP(=O)(O)OP(=O)(O)OP(=O)(O)O)[C@@H](O)[C@H]1O` [ATP], in data set [3], the “change in Tm of TbMetRS in the presence of the nucleotide and Mg2+” value is listed as “does not change significantly; also recorded: insignificant”.
Consider `O=C(NCCCNCc1cc(Cl)cc(Cl)c1)Nc1ccccc1` [Chem 1356], for which the “activity against the parasite in a mouse model” value in data set [4] was “suppressive activity”. Moreover, in data set [1], the pIC50 was 7.24. Besides, in data set [5], the “entry into the central nervous system” value was “enter the central nervous system” and the oral bioavailability entry is listed as “reasonable oral bioavailability”. In addition, in data set [2], the pEC50 was 6.45. Further, in data set [6], the membrane permeability result is “excellent membrane permeability”.
As for `O=C(NCCCNCc1cc(Cl)cc(Cl)c1)Nc1ccsc1` [Chem 1433], the “activity against the parasite in a mouse model” value in data set [4] was “moderate activity; also recorded: suppressive activity”. The “increase of Tm on addition of ATP-Mg2+ to the TbMetRS•Chem 1433 complex” value in data set [3] (compared to Tm of TbMetRS•Chem 1433 alone, n = 4, P<0.02, TbMetRS 0.1 mg/ml) came to 1.6 °C. For the same compound, the “increase of Tm on addition of AMPPCP-Mg2+ to the TbMetRS•Chem 1433 complex” value in data set [3] (compared to Tm of TbMetRS•Chem 1433 alone, n = 4, P<0.05, TbMetRS 0.1 mg/ml) was 1.2 °C. The “fold less favorable IC50 than Chem 1312” value in data set [1] (Chem 1433 (UBI) versus Chem 1312 (ABI)) was approximately 3.5 fold. Besides, in data set [1], the pIC50 was 7.55. Moreover, in data set [5], the “entry into the central nervous system” value was “enter the central nervous system” and the oral bioavailability result is “reasonable oral bioavailability”. Besides, the pEC50 in data set [2] is 6.72.
As for `Nc1ncnc2c1ncn2C1OC(COP(=O)(O)OP(=O)(O)CP(=O)(O)O)C(O)C1O` (stereo not drawn) [AMPPCP, β,γ-methyleneadenosine 5′-triphosphate], the “change in Tm of TbMetRS in the presence of the nucleotide and Mg2+” value in data set [3] is recorded as “does not change significantly; also recorded: insignificant”.
As for `O=C(NCCCNCc1cc(Cl)sc1Cl)Nc1ccsc1` [Chem 1509], the pIC50 in data set [1] is 6.49. In addition, in data set [2], the pEC50 was 5.55.
In the same order, the values of `C#Cc1cccc(CNCCCNC(=O)Nc2ccsc2)c1` [Chem 1478] are 7.02 and 5.97.
In the same order, the values of `CCOc1c(I)cc(Cl)cc1CNCCCNC(=O)Nc1ccsc1` [Chem 1469] are less than 5.00 and 5.02.
On to `Oc1cc(NCCCNCc2cc(Cl)cc(Cl)c2)nc2ccccc12` [Chem 1312], for which the pIC50 in data set [7] was 8.10.
For `C=C(F)c1sc(CNCCCNc2cc(O)c3ccccc3n2)c(C)c1Br` [REP8839], the “fold lower IC50 at 2500 µM ATP than at 25 µM ATP” value in data set [8] is listed as 30- to 50 fold.
As for `C=CCc1cc(Cl)cc(CNCCCNC(=O)Nc2ccsc2)c1OCc1ccccc1` [Chem 1476], in data set [1], the pIC50 was 5.78. Moreover, the pEC50 in data set [2] is 5.95.
In the same order, the values of `COc1cc(Cl)cc(CNCCCNC(=O)Nc2ccccc2)c1` [Chem 1415] are 7.35 and 6.57.
`O=C(NCCCNCc1cc(Cl)cc(I)c1O)Nc1ccsc1` [Chem 1473]: in data set [1], the pIC50 is 6.50. In addition, in data set [2], the pEC50 was 5.42.
Consider `O=C(NCCCNCc1cc(Cl)cc(Cl)c1)Nc1cccc(O)c1` [Chem 1387], for which the negative-log EC50 (pEC50) in data set [2] is 6.77.
Still for that read-out and setting: in the case of `O=C(NCCCNCc1cc(Cl)cc(Cl)c1)Nc1ccccc1O` [Chem 1392] it was 6.68.

Values taken from paper PMC3990509, “Structures of Trypanosoma brucei Methionyl-tRNA Synthetase with Urea-Based Inhibitors Provide Guidance for Drug Design against Sleeping Sickness” (PLoS Neglected Tropical Diseases, 2014).
